# Results from patent publication US20190183138A1, “MILK COAGULANT AND METHOD FOR PRODUCING CHEESE” (CHINA AGRICULTURAL UNIVERSITY, priority 2017, published 2019).
# Square brackets hold non-standard residues; d marks the D form. Peptide text beside a SMILES is read from it. * marks the point of attachment. Sta = CC(C)C[C@H](N)[C@@H](O)CC(=O)O; Isovaleryl = CC(C)CC(=O)*
# Columns and labels:
# [1] = tested on: C. otophyllum protease QA; assay: Effect of metal ions on milk-clotting activity; format: biochemical, Cynanchum otophyllum Schneid.; settings: metal ion 10 mmol/L added to 12% (w/v) skim milk containing 10 mmol/L CaCl2, pH 6.5
# Description: (§1) Some metal ions as a cofactor can participate in the milk-clotting reaction, thus affecting activity of enzyme. Further, the skim milk is of increased iron strength after addition of salts, thus interfering the stability of casein micelle and the formation of the milk clot. […] The reason of the promotion on milk coagulant activity and the decrease in milk-clotting time by the calcium ions is that they combines with exposed α-casein and β-casein during aggregation of the casein (i.e. the second step of the milk-clotting reaction), so as to promote formation of the milk clot. Further, it has been investigated that the calcium ions protect enzyme, especially those being poor resistant to temperature, and stabilizes the structure of enzyme, thus an amount of CaCl2 is often added to protect the structure of enzyme during cheese production, for increasing activity and speeding milk-clotting.
# [2] = tested on: C. otophyllum protease QC; assay: Effect of metal ions on milk-clotting activity; format: biochemical, Cynanchum otophyllum Schneid.; settings: metal ion 10 mmol/L added to 12% (w/v) skim milk containing 10 mmol/L CaCl2, pH 6.5
# Description: as §1
# [3] = tested on: C. otophyllum protease QA; format: biochemical, Cynanchum otophyllum Schneid.; settings: inhibitor 8 mmol/L, 37° C., 30 min
# Protocol: (§2) The caseinolytic activities of the C. otophyllum proteases were determined using a method modified from Mohanty et al. (2003). The substrate was prepared by dissolving 1% (wt/vol) of whole casein in 10 mmol/L of citric acidphosphate buffer (pH 6.5). The assay was performed by incubating 1.1 mL of substrate with 0.1 mL of partially purified protease extracted solution under 37° C. for 30 min and terminated using 1.8 mL of 5% (wt/vol) trichloroacetic acid (TCA). The blank control was prepared by adding the same amount of TCA to the protease extracted solution, then adding the substrate. After 30 min standing at room temperature, the completely precipitated proteins were removed by centrifuging at 5,000 × g for 20 min at room temperature. The protein content in the supernatant was then measured at 280 nm (UV-2102 PC, Unico Instrument Co. Ltd.). One unit of PA was defined as the amount of the protease extracted solution required for an increase of 0.01 in optical density in 1 min at 280 nm.
# (§3) The type of protease was determined as described by Mazorra-Manzano et al. (2013) with modification.Different protease inhibitors (8 mmol/L, 0.1 mL), a serine protease (phenylmethylsulfonyl fluoride, PMSF), a cysteine protease [transepoxy-succinylleucyl-amido-(4-guanidino)-butane, E-64], a metallo protease (EDTA), and an aspartic protease (pepstatin A), were added to 1 mL of the proteases. The mixtures were incubated at 37° C. for 30 min, then PA was evaluated. The percentage inhibition was calculated as follows:
# (§4) percentage inhibition=100−[100−(residual activity/activity without inhibitor)].
# [4] = tested on: C. otophyllum protease QC; format: biochemical, Cynanchum otophyllum Schneid.; settings: inhibitor 8 mmol/L, 37° C., 30 min
# Protocol: as §2, §3, §4
# [5] = tested on: 12% skim milk; assay: Milk clotting activity (MCA) assay, curd formation time; format: biochemical; settings: 12% skim milk in 10 mM CaCl2, pH 6.5, 37° C.; FIG. 5
# Protocol: The MCA of the C. otophyllum proteases was determined using a modified method of He et al. (2011). One milliliter of substrate (12% skim milk in 10 mM CaCl2, pH 6.5) was incubated under 37° C. for 5 min, then 0.1 mL of the protease extracted solution was added. The time needed for curd formation was recorded and the MCA was expressed in Soxhlet units (SU). One SU of MCA was defined as the amount of the protease extracted solution required to clot 1 mL of substrate within 40 min at 37° C.
# where V stands for the volume of the substrate (mL); v stands for the volume of the protease extract; and t stands for the milk-clotting time (s).
# The C. otophyllum proteases were extracted as described by Huang et al. (2011) with some modifications. The C. otophyllum leaves were cut into pieces, mixed with a buffer at different solid-liquid ratios (i.e. ratio of mass to volume) for extraction, and then left for 2 h under 4° C., thus obtaining an extracted solution. After successive filtration through 4 layers of cheesecloth and a 0.22-μm membrane, the filtrate was concentrated by ultrafiltration with a 10-kDa molecular weight cut-off membrane at 8000 × g for 40 minutes at 4° C., with the retentate obtained as the concentrated solution of C. otophyllum proteases, which was assayed for protein concentration following the method of Bradford (1976) and curd formation time for 12% (w/v) skim milk.
Molecule,effect on milk-clotting activity of QA [1],effect on milk-clotting activity of QC [2],further results
potassium,no significant effect,no significant effect,–
CC(C)CC(=O)N[C@H](C(=O)N[C@H](C(=O)N[C@@H](CC(C)C)[C@@H](O)CC(=O)N[C@@H](C)C(=O)N[C@@H](CC(C)C)[C@@H](O)CC(=O)O)C(C)C)C(C)C [pepstatin A] (Isovaleryl-VV[Sta]A[Sta]-OH),–,–,effect on the PA of QA [3]: does not affect; effect on the PA of QC [4]: does not affect
barium,no significant effect,no significant effect,–
bromelain [reference compound],–,–,MCA (milk-clotting activity) [5]: 222.2 SU/mg
lithium,no significant effect,no significant effect,–
magnesium,no significant effect,no significant effect,–
sodium,no significant effect,no significant effect,–
"O=S(=O)(F)Cc1ccccc1 [PMSF, phenylmethylsulfonyl fluoride]",–,–,reduction in the activity of QA ([3]; compared to the control): about 15%; reduction in the activity of QC ([4]; compared to the control): about 15%
O=C(O)CN(CCN(CC(=O)O)CC(=O)O)CC(=O)O [EDTA],–,–,effect on the PA of QA [3]: does not affect; effect on the PA of QC [4]: does not affect
"CC(C)C[C@H](NC(=O)[C@H]1O[C@@H]1C(=O)O)C(=O)NCCCCN=C(N)N [E-64, transepoxy-succinylleucyl-amido-(4-guanidino)-butane]",–,–,PA of QA in presence of inhibitor ([3]; 0.1 mL to 1 mL protease): 20 % of the control; PA of QC in presence of inhibitor ([4]; 0.1 mL to 1 mL protease): 20 % of the control
calcium,significant increased effect,significant increased effect,–
zinc,significant inhibition,significant inhibition,–
copper,significant inhibition,significant inhibition,–
aluminium,significant increased effect,significant increased effect,–
